Reference: patent publication US12134610B2, “Somatostatin subtype-2 receptor (SST2R) targeted therapeutics and uses thereof” (priority 2022, dated 2024)
Like-named read-outs stand apart in the source and are kept apart here. Starred links: 1 amine or outer side, 2 acyl side, 3 side chain; linkers in the order of their positions; H or OH if unused. Non-standard residues stand in square brackets, D forms with d. Residues, ends and D or L forms follow the SMILES beside them. *: point of attachment. PABC(3-O-βDGlc) = O=C(OCc1ccc(N[*:1])c(O[C@@H]2O[C@H](CO)[C@@H](O)[C@H](O)[C@H]2O)c1)[*:2]; X1 = Cc1cc(F)cc(-c2cnc(NCCNC(=O)CCOCCC(=O)*)c(-c3nc4ccc(Cl)cc4[nH]3)c2N2CCC(N)CC2)c1; Dolaproine = CO[C@@H]([C@@H]1CCCN1)[C@@H](C)C(=O)O; Dil = CC[C@H](C)[C@H](NC)[C@@H](CC(=O)O)OC; PABC = O=C(OCc1ccc(N[*:1])cc1)[*:2]; X2 = C[C@@H](N*)[C@@H](O)c1ccccc1; Cit = NC(=O)NCCC[C@H](N)C(=O)O; NMeV = CN[C@H](C(=O)O)C(C)C

Tests used:
Type in all cases: cell-based
[1] = target: T1, SST2 (Homo sapiens, UniProt P30874); assay: PathHunter CHO-K1 SST2 internalization assay; settings: PathHunter CHO-K1 SST2, 90 min
T1 construct: host or cells: PathHunter CHO-K1 SST2 cells
T1 sequence (P30874 whole entry): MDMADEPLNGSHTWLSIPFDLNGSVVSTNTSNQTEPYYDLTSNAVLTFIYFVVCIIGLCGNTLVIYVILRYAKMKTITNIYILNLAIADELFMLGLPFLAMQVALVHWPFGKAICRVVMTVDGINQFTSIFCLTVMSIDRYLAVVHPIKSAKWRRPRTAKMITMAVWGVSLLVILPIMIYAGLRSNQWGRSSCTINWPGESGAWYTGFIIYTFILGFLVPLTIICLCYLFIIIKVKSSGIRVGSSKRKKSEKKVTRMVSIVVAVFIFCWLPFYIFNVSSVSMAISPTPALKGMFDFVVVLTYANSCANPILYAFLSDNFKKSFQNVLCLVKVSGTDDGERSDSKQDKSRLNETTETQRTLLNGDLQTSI
Outline: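 PathHunter CHO-K1 SST2 cells, seeded and grown 48 h, were exposed to 11-point 1:3 dilutions of SMDC (top final 10 uM) for 90 min at 37 C, 5% CO2. Beta-Glo luminescence was read after 60 min at room temperature. Background-corrected duplicate means were fitted by four-parameter nonlinear regression to give IC50.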

[2] = tested on: NCI-H524 (ATCC) human small cell lung cancer cells
Outline: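 NCI-H524 cells (5,000/well) were exposed 24 h after plating to SMDC for 2 h, 11-point two-fold series from 1 uM. After washout they grew a further 70 h. Proliferation was read by CellTiter-Glo luminescence, % inhibition taken vs untreated control, and IC50 fitted by four-parameter nonlinear regression.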

[3] = target: T2, human somatostatin receptor subtype 2 (Homo sapiens, UniProt P30874); assay: Functional cAMP assay for SSTR2 agonists (HTRF) in CHO-K1 cells; settings: CHO-K1 cells stably expressing human SST2, 20 min
T2 construct: expressed in transfected cells
T2 sequence (P30874 whole entry): as above
Outline: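 CHO-K1 cells stably expressing receptor, plated 4 days before assay, treated 20 min at 37° C. with compound (typically 0-10,000 nM final) plus IBMX and 1.6 μM NKH477 to raise cAMP. HTRF read, 665/620 nm ratio; cAMP from standard curve, EC50 fitted.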

[4] = 2 h treatment, washout, additional 70 h, read-out: H524 EC50

Compound	EC50 ([1]; read-out: Internalization EC50)	EC50 ([2]; 2 h)	EC50 ([3]; read-out: hSST2 cAMP Avg EC50)	EC50 ([1]; Internalization EC50 (nM))	EC50 [2, 4]	EC50 ([3]; hSST2 cAMP Avg EC50 (nM))
CC[C@H](C)[C@@H]([C@@H](CC(=O)N1CCC[C@H]1[C@H](OC)[C@@H](C)C(=O)N[C@H](C)[C@@H](O)c1ccccc1)OC)N(C)C(=O)[C@@H](NC(=O)[C@H](C(C)C)N(C)C(=O)OCc1ccc(NC(=O)[C@H](CCCNC(N)=O)NC(=O)[C@@H](NC(=O)[C@H](CCC(N)=O)NC(=O)CCOCCC(=O)NCCNc2ncc(-c3cc(C)cc(F)c3)c(N3CCC(N)CC3)c2-c2nc3ccc(Cl)cc3[nH]2)C(C)C)cc1)C(C)C [Compound 56] (X1-QV[Cit][PABC][NMeV]V[Dil][Dolaproine]-X2)	15.1 nM	10.3 nM	0.23 nM	–	–	–
CC[C@H](C)[C@@H]([C@@H](CC(=O)N1CCC[C@H]1[C@H](OC)[C@@H](C)C(=O)N[C@H](C)[C@@H](O)c1ccccc1)OC)N(C)C(=O)[C@@H](NC(=O)[C@H](C(C)C)N(C)C(=O)OCc1ccc(NC(=O)[C@H](CCCNC(N)=O)NC(=O)[C@@H](NC(=O)[C@H](CCC(N)=O)NC(=O)CCOCCC(=O)NCCNc2ncc(-c3cc(C)cc(F)c3)c(N3CCC(N)CC3)c2-c2nc3ccc(Cl)cc3[nH]2)C(C)C)cc1C(=O)NCCN)C(C)C [Compound 57]	5.7 nM	15 nM	0.38 nM	–	–	–
CC[C@H](C)[C@@H]([C@@H](CC(=O)N1CCC[C@H]1[C@H](OC)[C@@H](C)C(=O)N[C@H](C)[C@@H](O)c1ccccc1)OC)N(C)C(=O)[C@@H](NC(=O)[C@H](C(C)C)N(C)C(=O)OCc1ccc(NC(=O)[C@H](CCCNC(N)=O)NC(=O)[C@@H](NC(=O)[C@H](CCC(N)=O)NC(=O)CCOCCOCCOCCOCCC(=O)NCCNc2ncc(-c3cc(C)cc(F)c3)c(N3CCC(N)CC3)c2-c2nc3ccc(Cl)cc3[nH]2)C(C)C)cc1C(=O)NCCN)C(C)C [Compound 58]	5 nM	11 nM	0.37 nM	–	–	–
CC[C@H](C)[C@@H]([C@@H](CC(=O)N1CCC[C@H]1[C@H](OC)[C@@H](C)C(=O)N[C@H](C)[C@@H](O)c1ccccc1)OC)N(C)C(=O)[C@@H](NC(=O)[C@H](C(C)C)N(C)C(=O)OCc1ccc2cc1C(=O)NCCNC(=O)CC[C@H](NC(=O)CCOCCC(=O)NCCNc1ncc(-c3cc(C)cc(F)c3)c(N3CCC(N)CC3)c1-c1nc3ccc(Cl)cc3[nH]1)C(=O)N[C@@H](C(C)C)C(=O)N[C@@H](CCCNC(N)=O)C(=O)N2)C(C)C [Compound 59]	6.5 nM	14 nM	0.35 nM	–	–	–
CC[C@H](C)[C@@H]([C@@H](CC(=O)N1CCC[C@H]1[C@H](OC)[C@@H](C)C(=O)N[C@H](C)[C@@H](O)c1ccccc1)OC)N(C)C(=O)[C@@H](NC(=O)[C@H](C(C)C)N(C)C(=O)OCc1ccc(NC(=O)[C@H](CCCNC(N)=O)NC(=O)[C@@H](NC(=O)[C@H](CCC(N)=O)NC(=O)CCOCCOCCOCCOCCC(=O)NCCNc2ncc(-c3cc(C)cc(F)c3)c(N3CCC(N)CC3)c2-c2nc3ccc(Cl)cc3[nH]2)C(C)C)cc1C(=O)NC)C(C)C [Compound 60]	13 nM	35 nM	0.1 nM	–	–	–
CC[C@H](C)[C@@H]([C@@H](CC(=O)N1CCC[C@H]1[C@H](OC)[C@@H](C)C(=O)N[C@H](C)[C@@H](O)c1ccccc1)OC)N(C)C(=O)[C@@H](NC(=O)[C@H](C(C)C)N(C)C(=O)OCc1ccc(NC(=O)[C@H](CCCNC(N)=O)NC(=O)[C@@H](NC(=O)CCOCCOCCOCCOCCC(=O)NCCNc2ncc(-c3cc(C)cc(F)c3)c(N3CCC(N)CC3)c2-c2nc3ccc(Cl)cc3[nH]2)C(C)C)c(O[C@@H]2O[C@H](C(=O)O)[C@@H](O)[C@H](O)[C@H]2O)c1)C(C)C [Compound 62]	14 nM	61.2 nM	0.2 nM	–	–	–
CC[C@H](C)[C@@H]([C@@H](CC(=O)N1CCC[C@H]1[C@H](OC)[C@@H](C)C(=O)N[C@H](C)[C@@H](O)c1ccccc1)OC)N(C)C(=O)[C@@H](NC(=O)[C@H](C(C)C)N(C)C(=O)OCc1ccc(NC(=O)[C@H](CCCNC(N)=O)NC(=O)[C@@H](NC(=O)CCCCC(=O)NCCNc2ncc(-c3cc(C)cc(F)c3)c(N3CCC(N)CC3)c2-c2nc3ccc(Cl)cc3[nH]2)C(C)C)c(O[C@@H]2O[C@H](C(=O)O)[C@@H](O)[C@H](O)[C@H]2O)c1)C(C)C [Compound 63]	16 nM	13 nM	0.16 nM	–	–	–
CC[C@H](C)[C@@H]([C@@H](CC(=O)N1CCC[C@H]1[C@H](OC)[C@@H](C)C(=O)N[C@H](C)[C@@H](O)c1ccccc1)OC)N(C)C(=O)[C@@H](NC(=O)[C@H](C(C)C)N(C)C(=O)OCc1ccc(NC(=O)CCOCCOCCOCCOCCC(=O)NCCNc2ncc(-c3cc(C)cc(F)c3)c(N3CCC(N)CC3)c2-c2nc3ccc(Cl)cc3[nH]2)c(O[C@@H]2O[C@H](C(=O)O)[C@@H](O)[C@H](O)[C@H]2O)c1)C(C)C [Compound 64]	12 nM	9500 nM	0.1 nM	–	–	–
CC[C@@]1(O)C(=O)OCc2c1cc1n(c2=O)Cc2c-1nc1cc(F)c(C)c3c1c2[C@@H](NC(=O)OCc1ccc(NC(=O)[C@H](C)NC(=O)[C@@H](NC(=O)CCOCCC(=O)NCCNc2ncc(-c4cc(C)cc(F)c4)c(N4CCC(N)CC4)c2-c2nc4ccc(Cl)cc4[nH]2)C(C)C)c(O[C@@H]2O[C@H](C(=O)O)[C@@H](O)[C@H](O)[C@H]2O)c1)CC3 [Compound 65]	–	–	–	1.5 nM	250 nM	0.27 nM
CC[C@H](C)[C@@H]([C@@H](CC(=O)N1CCC[C@H]1[C@H](OC)[C@@H](C)C(=O)N[C@H](C)[C@@H](O)c1ccccc1)OC)N(C)C(=O)[C@@H](NC(=O)[C@H](C(C)C)N(C)C(=O)OCc1ccc(NC(=O)[C@H](C)NC(=O)[C@@H](NC(=O)CCOCCC(=O)N[C@@H](CS(=O)(=O)O)C(=O)NCCNc2ncc(-c3cc(C)cc(F)c3)c(N3CCC(N)CC3)c2-c2nc3ccc(Cl)cc3[nH]2)C(C)C)c(O[C@@H]2O[C@H](CO)[C@@H](O)[C@H](O)[C@H]2O)c1)C(C)C [Compound 66]	15 nM	300 nM	0.13 nM	–	–	–
CC[C@H](C)[C@@H]([C@@H](CC(=O)N1CCC[C@H]1[C@H](OC)[C@@H](C)C(=O)N[C@H](C)[C@@H](O)c1ccccc1)OC)N(C)C(=O)[C@@H](NC(=O)[C@H](C(C)C)N(C)C(=O)OCc1ccc(NC(=O)[C@H](C)NC(=O)[C@@H](NC(=O)[C@H](CCC(=O)O)NC(=O)CCOCCC(=O)NCCNc2ncc(-c3cc(C)cc(F)c3)c(N3CCC(N)CC3)c2-c2nc3ccc(Cl)cc3[nH]2)C(C)C)c(O[C@@H]2O[C@H](CO)[C@@H](O)[C@H](O)[C@H]2O)c1)C(C)C [Compound 67] (X1-EVA[PABC(3-O-βDGlc)][NMeV]V[Dil][Dolaproine]-X2)	6.7 nM	41 nM	0.19 nM	–	–	–
CC[C@H](C)[C@@H]([C@@H](CC(=O)N1CCC[C@H]1[C@H](OC)[C@@H](C)C(=O)N[C@H](C)[C@@H](O)c1ccccc1)OC)N(C)C(=O)[C@@H](NC(=O)[C@H](C(C)C)N(C)C(=O)OCc1ccc(NC(=O)[C@H](CCCNC(N)=O)NC(=O)[C@@H](NCCOCCOCCOCCOCCC(=O)NCCNc2ncc(-c3cc(C)cc(F)c3)c(N3CCC(N)CC3)c2-c2nc3ccc(Cl)cc3[nH]2)C(C)C)cc1)C(C)C [Compound 69]	7.8 nM	14.5 nM	0.25 nM	–	–	–
CC[C@H](C)[C@@H]([C@@H](CC(=O)N1CCC[C@H]1[C@H](OC)[C@@H](C)C(=O)N[C@H](C)[C@@H](O)c1ccccc1)OC)N(C)C(=O)[C@@H](NC(=O)[C@H](C(C)C)N(C)C(=O)OCc1ccc(NC(=O)[C@H](CCCNC(N)=O)NC(=O)[C@@H](NC(=O)CCOCCC(=O)N[C@@H](CS(=O)(=O)O)C(=O)NCCNc2ncc(-c3cc(C)cc(F)c3)c(N3CCC(N)CC3)c2-c2nc3ccc(Cl)cc3[nH]2)C(C)C)cc1)C(C)C [Compound 70]	17 nM	68 nM	0.44 nM	–	–	–
CC[C@@]1(O)C(=O)OCc2c1cc1n(c2=O)Cc2c-1nc1cc(F)c(C)c3c1c2[C@@H](NC(=O)OCc1ccc(NC(=O)[C@H](CCCNC(N)=O)NC(=O)[C@@H](NC(=O)[C@H](CCC(=O)O)NC(=O)CCOCCC(=O)NCCNc2ncc(-c4cc(C)cc(F)c4)c(N4CCC(N)CC4)c2-c2nc4ccc(Cl)cc4[nH]2)C(C)C)cc1)CC3 [Compound 71]	–	–	–	1.6 nM	270 nM	0.29 nM
CC[C@@]1(O)C(=O)OCc2c1cc1n(c2=O)Cc2c-1nc1cc(F)c(C)c3c1c2[C@@H](NC(=O)OCc1ccc(NC(=O)[C@H](CCCNC(N)=O)NC(=O)[C@@H](NC(=O)CN2CCN(CC(=O)O)CCN(CC(=O)NCCOCCC(=O)NCCNc4ncc(-c5cc(C)cc(F)c5)c(N5CCC(N)CC5)c4-c4nc5ccc(Cl)cc5[nH]4)CC2)C(C)C)cc1)CC3 [Compound 72]	–	–	–	3.9 nM	31 nM	0.28 nM
CC[C@H](C)[C@@H]([C@@H](CC(=O)N1CCC[C@H]1[C@H](OC)[C@@H](C)C(=O)N[C@H](C)[C@@H](O)c1ccccc1)OC)N(C)C(=O)[C@@H](NC(=O)[C@H](C(C)C)N(C)C(=O)OCc1ccc(NC(=O)[C@H](CCCNC(N)=O)NC(=O)[C@@H](NC(=O)CCC(=O)NCCNc2ncc(-c3cc(C)cc(F)c3)c(N3CCC(N)CC3)c2-c2nc3ccc(Cl)cc3[nH]2)C(C)C)c(O[C@@H]2O[C@H](C(=O)O)[C@@H](O)[C@H](O)[C@H]2O)c1)C(C)C [Compound 75]	8.9 nM	16.5 nM	0.54 nM	–	–	–
